Assays:
HLA-A2 molecule = biological target: T1, HLA-A2 molecule (Homo sapiens, UniProt P04439, D140Y/D185E/D98H/E176V/E277Q/G131W/G231S/I119V/I121R/I166T/I218V/L300P/L318F/N151K/N90K/P208A/P217A/Q86G/Q94H/R138H/R169H/T345S); assay: HLA-A2 binding affinity assay on peptide-pulsed T2 cells (HLA-A2 up-regulation, flow cytometry MFI)
T1 construct: endogenous in cells; host or cells: T2 cell line (human B and T cell hybrid), provided by Dr. J. Molldrem
Experimental: The listed BCMA peptides were evaluated for HLA-A2-specific binding capacity using the T2 cell line. In the assay, T2 cells were washed, resuspended in serum-free AIM-V medium to a final concentration of 1×10^6 cells/ml and transferred into wells of a 24-well tissue culture plate. The cells were pulsed with different concentrations of respective BCMA peptide (0-200 μg/ml) plus 3 μg/ml human β2-microglobulin (Sigma) and incubated at 37° C., 5% CO2 in humidified air. Following overnight incubation, the cells were washed, stained with mouse anti-human HLA-A2-FITC mAb for 15 minutes at 4° C., washed and analyzed using a FACSort™ flow cytometer with CellQuest™ v2.1 software (Becton Dickinson, San Jose, Calif.). […] Among the BCMA peptides evaluated, “#4. […] (FIG. 2).
(§1) T2 cells were pulsed overnight with various doses of peptide plus β2-microglobulin (3 μg/ml) (Sigma, St Louis, Mo.). Following overnight incubation, the cells were stained with HLA-A2-PE mAb and analyzed using a FACSCanto™ flow cytometer (BD). Peptide/HLA-A2 complex stability was measured on peptide loaded T2 cells at 0, 2, 4, 6 and 14 hours post-brefeldin A treatment by staining with HLA-A2-PE mAb and flow cytometric analysis.
as §1, with “concentrations” for “doses”, “The stability of peptide/HLA-A2” for “Peptide/HLA-A2”, “binding” for “stability”, “treatment followed” for “treatment”

[1] = tested on: CD3+ T cells obtained from HLA-A2+ donors; assay: Induction and phenotypic analysis of peptide-specific CTL by repeated peptide stimulation; type: cell-based, human
Experimental: The peptide-specific CTL were generated from different HLA-A2^+ normal donors for the evaluation of the functional activities targeting MM cell lines. To generate the peptide-specific CTL, mature dendritic cells (mDC) generated from the same donor were resuspended in serum-free AIM-V media and pulsed with 50 μg/ml of the Heteroclitic #4 BCMA72-80 (YLMFLLRKI (SEQ ID NO: 13)) peptide or “Heteroclitic #3 TACI154-162 (YLSADQVAL (SEQ ID NO: 16))” peptide, overnight at 37° C., 5% CO2 in humidified air. The peptide-pulsed mDC were washed, counted, irradiated at 10 Gy and used to prime CD3^+ T cells at a 1:20 antigen-presenting cells/peptide-to-CD3^+ T cell ratio in AIM-V media supplemented with 10% human AB serum. […] To maintain the T cells ex vivo, IL-2 (50 U/ml) was added to the cultures two days after the second stimulation. Control T cell cultures were maintained under the same culture conditions in the presence of IL-2 (50 U/ml), but without peptide stimulation. Phenotype of the resulting CTL was evaluated one week after each cycle of peptide stimulation. […] The BCMA peptide-specific CTL cultures contained a higher percentage of CD8^+ T cells (˜80%) upon 4 cycle of peptide stimulation compared to non-peptide stimulated control T cells (˜20%) (FIGS. 8A-8C).
Antigen-specific CTL can be phenotypically identified as activated/memory T cells from naïve T cells by their expression of distinct cell surface antigens. The phenotype of the BCMA-CTL were examined as potential effector cells by analyzing the phenotype of naïve and memory cells. BCMA peptide-specific CTL were generated by repeated stimulation of HLA-A2^+ normal donor's CD3^+ T cells weekly with antigen-presenting cells pulsed with 50 μg/ml heteroclitic BCMA72-80 (YLMFLLRKI (SEQ ID NO: 13)). One week after each peptide stimulation, the resulting CTL were evaluated for their phenotypic profile by flow cytometry.
BCMA peptide-specific CTL (BCMA-CTL) were generated ex vivo by repeated stimulation of CD3^+ T cells obtained from HLA-A2^+ donors with peptide-pulsed antigen-presenting cells (APC). In brief, peptide (50 μg/ml)-pulsed APC were irradiated (10 Gy) and used to stimulate T cells at a 1 APC/peptide: 20 T cell ratio. The T cell cultures were restimulated every 7 days and maintained in AIM-V medium supplemented with 10% human AB serum (BioWhittaker) in the presence of IL-2 (50 units/ml).
Phenotypic characterization was performed on BCMA-CTL after staining with Live/Dead Aqua stain kit and fluorochrome conjugated anti-human mAbs and Tetramer-PE. Alternatively, the MM and breast cancer cell lines were stained with fluorochrome-conjugated BCMA or HLA-A2 mAb. After staining, the cells were washed, fixed in 2% paraformaldehyde, and analyzed by flow cytometry.
TACI peptide-specific CTL (TACI-CTL) were generated ex vivo by repeated stimulation of enriched CD3^+ T cells obtained from HLA-A2^+ donors with peptide-pulsed antigen-presenting cells (APC). In brief, peptide (50 μg/ml)-pulsed APC were irradiated (10 Gy) and used to stimulate T cells at a 1:20 APC/peptide-to-T cell ratio. The T cell cultures were restimulated every 7 days and maintained in AIM-V medium supplemented with 10% human AB serum (BioWhittaker) in the presence of IL-2 (50 units/ml).
Phenotypic characterization was performed on the MM target cells to conform TACI expression. Phenotypic characterization was performed on the TACI-CTL after staining with Live/Dead Aqua stain kit and fluorochrome conjugated anti-human mAbs. After staining, the cells were washed, fixed in 2% paraformaldehyde, and analyzed by flow cytometry.

[2] = Donor 1, after 2 cycles of peptide stimulation
[3] = Donor 1, after 4 cycles of stimulation
[4] = Donor 1, upon 4 cycles of stimulation
[5] = Donor 2, after 2 cycles of peptide stimulation
[6] = Donor 2, after 4 cycles of stimulation
[7] = Donor 2, upon 4 cycles of stimulation

Sequence: YLMFLLRKI [heteroclitic BCMA72-80, heteroclitic BCMA peptide]
- HLA-A2 binding affinity, heteroclitic vs native peptide (HLA-A2 molecule; Example 4, FIGS. 4 and 5): increased from their native peptide
- change in HLA-A2 binding affinity of heteroclitic BCMA peptide compared to native peptide (HLA-A2 molecule; Example 12, n=3, p<0.05): highest increase in HLA-A2 binding affinity
- Naïve (CD45RO-CCR7+) within CD8+ T cells [1, 2]: 37.4%
- central memory (CM; CD45RO+CCR7+) within CD8+ T cells [1, 2]: 32.1%
- central memory (CM) within CD8+ T cells [1, 3]: 44.2%
- effector memory (EM; CD45RO+CCR7-) within CD8+ T cells [1, 3]: 54.6%
- frequency of memory CD3+CD8+ T cells [1, 4]: 86%
- frequency of naive CD3+CD8+ T cells [1, 4]: 2%
- Naïve (CD45RO-CCR7+) within CD8+ T cells [1, 5]: 19.0%
- central memory (CM) within CD8+ T cells [1, 5]: 49.6%
- central memory (CM) within CD8+ T cells [1, 6]: 18.3%
- effector memory (EM) within CD8+ T cells [1, 6]: 77.6%
- frequency of memory CD3+CD8+ T cells [1, 7]: 92%
- frequency of naive CD3+CD8+ T cells [1, 7]: 2%
- frequency of effector memory (CD45RO+/CCR7-) CD3+CD8+ T cells ([1]; after 4 cycles of peptide stimulation): increased
- percentage of CD8+ T cells in peptide-specific CTL cultures ([1]; upon 4 cycle of peptide stimulation, 50 μg/ml): ~80%

Reference: patent publication US11517591B2, “Immunogenic peptides specific to BCMA and TACI antigens” (Dana-Farber Cancer Institute, Inc., priority 2017, dated 2022)
